In US20150368209A1, “4-Pyrimidinylamino-benzenesulfonamide derivatives and their use for the inhibition of polo-like kinase 1 (PLK1) for the treatment of cancer and their use for the treatment of bacterial infections” (VICHEM CHEMIE KUTATÓ KFT., priority 2013, published 2015) one finds inhibition, IC50 and MIC data, which are given here for 20 compounds.

One assay relates to M. tuberculosis H37Rv. The experiment in a line: Resazurin reduction microtiter assay (REMA), growth inhibition and MIC determination. In kind it is cell-based. As to conditions: Mycobacterium tuberculosis, 168 h, 7 days at 37° C.; for inhibition at 20 µM: at 20 uM compound, read-out: H37Rv inh % at 20 uM; for MIC: two-fold serial dilution from 100 to 0.16 μM, read-out: H37Rv MIC90.

The target of another assay is T1, human PLK1 kinase domain (Homo sapiens, UniProt P53350).
T1 construct: Each reaction consisted of 30 nM enzyme PLK1 kinase domain
The experiment in a line: In vitro PLK1 assay (IMAP fluorescence polarization kinase assay). It is filed as biochemical. Particulars: for inhibition at 10 µM: at 10 uM compound; for IC50: 30 nM PLK1 kinase domain, 16 μM ATP (=Kmapp), 90 min at room temperature. As for the experimental part:
The activity of the compounds described in the present invention was determined using a commercially available IMAP Screening Express Assay Kit (Molecular devices).
This method measures the change in the fluorescent polarization of a fluorescently-labeled peptide due to the effect of human PLK1 kinase domain on it. PLK1 kinase assays were performed in low protein binding 384-well plates (Corning 3676). Test compounds were diluted in 100% DMSO to 5 mM stock concentration, the further dilutions were made in H2O or 100% DMSO to desirable concentrations.
Each reaction consisted of 30 nM enzyme PLK1 kinase domain, 400 nM 5TAMRA-RGSFNDTLDFD-NH2 (Genecust Europe), 16 μM ATP (=Kmapp, Sigma-Aldrich) and kinase buffer: 20 mM HEPES pH 7.5 (Sigma-Aldrich), 1 mM DTT (Sigma-Aldrich), 10 mM MgCl2 (Sigma-Aldrich), 0.01% Triton X-100 (Sigma-Aldrich).
For each reaction, 4 or 6 μl containing 5TAMRA-RGSFNDTLDFD-NH2, ATP and kinase buffer were combined with 2 μl diluted compound in H2O or 0.04 μl compound in 100% DMSO. The kinase reaction was started by the addition of 2 μl diluted enzyme. The reaction was allowed to run for 90 minutes at room temperature. The reaction was stopped by adding 15 μl IMAP beads (1:1200 beads in progressive (40% buffer A, 60% buffer B) 1× buffer). After an additional 60 minutes, fluorescent polarization (Ex: 550-10 nm, Em: 590-10 nm, Dich: 561 nm) was measured using Analyst GT multimode reader (Molecular Devices).
For orientation: Polarisation of emitted light reports the rotation of a fluorescent probe.

In brackets after ≈: the same amount, converted by molar mass.

T1 sequence (P53350 53-305 limits assumed): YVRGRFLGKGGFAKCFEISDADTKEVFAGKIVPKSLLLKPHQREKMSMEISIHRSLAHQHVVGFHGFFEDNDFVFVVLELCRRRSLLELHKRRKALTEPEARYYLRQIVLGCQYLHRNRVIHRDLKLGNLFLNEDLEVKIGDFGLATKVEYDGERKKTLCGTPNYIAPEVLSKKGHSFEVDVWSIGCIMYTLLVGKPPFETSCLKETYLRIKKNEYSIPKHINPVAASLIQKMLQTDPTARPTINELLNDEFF

On to `COc1ccc(COc2ccccc2-c2cc(Nc3ccc(S(=O)(=O)Nc4onc(C)c4C)cc3)ncn2)cc1` [Example 29, N-(3,4-Dimethyl-isoxazol-5-yl)-4-{6-[2-(4-methoxy-benzyloxy)-phenyl]-pyrimidin-4-ylamino}-benzenesulfonamide], for which, in the assay with M. tuberculosis H37Rv, the inhibition at 20 µM was -14.2%. Moreover, the inhibition at 10 µM on human PLK1 kinase domain amounted to 36%.
In the case of `Cc1noc(NS(=O)(=O)c2ccc(Nc3cc(-c4ccc(F)cc4OC(C)C)ncn3)cc2)c1C` [Example 17, N-(3,4-Dimethyl-isoxazol-5-yl)-4-[6-(4-fluoro-2-isopropoxy-phenyl)-pyrimidin-4-ylamino]-benzenesulfonamide], the inhibition at 20 µM in the assay on M. tuberculosis H37Rv is -1.4%. Moreover, at human PLK1 kinase domain, the IC50 came to 179 nM and the inhibition at 10 µM was determined as 68.8%.
Take `Cc1noc(NS(=O)(=O)c2ccc(Nc3cc(-c4ccc(F)cc4Cl)ncn3)cc2)c1C` [Example 19, 4-[6-(2-Chloro-4-fluoro-phenyl)-pyrimidin-4-ylamino]-N-(3,4-dimethyl-isoxazol-5-yl)-benzenesulfonamide]: in the assay with M. tuberculosis H37Rv, the inhibition at 20 µM is 100% and the MIC was 19.4 µM (≈ 9.22 µg/mL). On human PLK1 kinase domain, the midpoint of inhibition, the IC50, lay at 47 nM and the inhibition at 10 µM came out at 60.8%.
On to `Cc1noc(NS(=O)(=O)c2ccc(Nc3cc(-c4ccc(N(C)C)cc4)ncn3)cc2)c1C` [Example 48, 4-[6-(4-Dimethylamino-phenyl)-pyrimidin-4-ylamino]-N-(3,4-dimethyl-isoxazol-5-yl)-benzenesulfonamide], for which, at human PLK1 kinase domain, the 50% inhibitory concentration (IC50) was 14200 nM and the inhibition at 10 µM was determined as 87%.
For the compound `Cc1noc(NS(=O)(=O)c2ccc(Nc3cc(-c4ccccc4COc4ccc(OC(F)(F)F)cc4)ncn3)cc2)c1C` [Example 30, N-(3,4-Dimethyl-isoxazol-5-yl)-4-{6-[2-(4-trifluoromethoxy-phenoxymethyl)-phenyl]-pyrimidin-4-ylamino}-benzenesulfonamide], the inhibition at 10 µM against human PLK1 kinase domain came out at 0%.
Regarding `Cc1noc(NS(=O)(=O)c2ccc(Nc3cc(-c4cccc(C(F)(F)F)c4)ncn3)cc2)c1C` [Example 42, N-(3,4-Dimethyl-isoxazol-5-yl)-4-[6-(3-trifluoromethyl-phenyl)-pyrimidin-4-ylamino]-benzenesulfonamide], the inhibition at 20 µM in the assay on M. tuberculosis H37Rv worked out at 24.2%. In addition, the inhibition at 10 µM on human PLK1 kinase domain amounted to 17%.
Turning to `COc1ccccc1-c1cc(Nc2ccc(S(=O)(=O)Nc3onc(C)c3C)cc2)ncn1` [Example 31, N-(3,4-Dimethyl-isoxazol-5-yl)-4-[6-(2-methoxy-phenyl)-pyrimidin-4-ylamino]-benzenesulfonamide], on human PLK1 kinase domain, 2470 nM corresponded to half-maximal inhibition (IC50) and the inhibition at 10 µM is 79.8%.
`Cc1noc(NS(=O)(=O)c2ccc(Nc3cc(-c4ccc(F)cc4F)ncn3)cc2)c1C` [Example 21, 4-[6-(2,4-Difluoro-phenyl)-pyrimidin-4-ylamino]-N-(3,4-dimethyl-isoxazol-5-yl)-benzenesulfonamide]: in the assay with M. tuberculosis H37Rv, the inhibition at 20 µM was -3.7%. In addition, at human PLK1 kinase domain, the midpoint of inhibition, the IC50, lay at 368 nM and the inhibition at 10 µM was 65.8%.
For `COc1cccc(-c2cc(Nc3ccc(S(=O)(=O)Nc4onc(C)c4C)cc3)ncn2)c1` [Example 35, N-(3,4-Dimethyl-isoxazol-5-yl)-4-[6-(3-methoxy-phenyl)-pyrimidin-4-ylamino]-benzenesulfonamide] the same measures were -8.1%, 2490 nM and 77.1%.
In the case of `COc1ccccc1-c1cc(Nc2ccc(S(=O)(=O)Nc3nnc(C)s3)cc2)ncn1` [Example 32, 4-[6-(2-Methoxy-phenyl)-pyrimidin-4-ylamino]-N-(5-methyl-[1,3,4]thiadiazol-2-yl)-benzenesulfonamide], in the assay on M. tuberculosis H37Rv, the inhibition at 20 µM amounted to 100% and the MIC is 18.5 µM (≈ 8.41 µg/mL). Also, at human PLK1 kinase domain, the IC50 was determined as 917 nM and the inhibition at 10 µM came out at 63.5%.
Take `COc1cccc(-c2cc(Nc3ccc(S(=O)(=O)Nc4onc(C)c4C)cc3)ncn2)c1OC` [Example 36, 4-[6-(2,3-Dimethoxy-phenyl)-pyrimidin-4-ylamino]-N-(3,4-dimethyl-isoxazol-5-yl)-benzenesulfonamide]: in the assay on M. tuberculosis H37Rv, the inhibition at 20 µM is -9.8%. Also, at human PLK1 kinase domain, the IC50 is 2180 nM and the inhibition at 10 µM stood at 77.3%.
For `COc1ccc(F)cc1-c1cc(Nc2ccc(S(=O)(=O)Nc3onc(C)c3C)cc2)ncn1` [Example 38, N-(3,4-Dimethyl-isoxazol-5-yl)-4-[6-(5-fluoro-2-methoxy-phenyl)-pyrimidin-4-ylamino]-benzenesulfonamide], in the assay on M. tuberculosis H37Rv, the inhibition at 20 µM worked out at 96.4% and the MIC was found to be 19.6 µM (≈ 9.2 µg/mL). At human PLK1 kinase domain, the IC50 came out at 3190 nM and the inhibition at 10 µM was determined as 80.8%.
In the case of `Cc1noc(NS(=O)(=O)c2ccc(Nc3cc(-c4ccc(C(N)=O)cc4)ncn3)cc2)c1C` [Example 46, 4-{6-[4-(3,4-Dimethyl-isoxazol-5-ylsulfamoyl)-phenylamino]-pyrimidin-4-yl}-benzamide], the inhibition at 10 µM on human PLK1 kinase domain was found to be 24%.
As for `Cc1noc(NS(=O)(=O)c2ccc(Nc3cc(-c4ccccc4F)ncn3)cc2)c1C` [Example 40, N-(3,4-Dimethyl-isoxazol-5-yl)-4-[6-(2-fluoro-phenyl)-pyrimidin-4-ylamino]-benzenesulfonamide], the inhibition at 20 µM with M. tuberculosis H37Rv was -8.5%. At human PLK1 kinase domain, half-maximal inhibition (IC50) was put at 2430 nM and the inhibition at 10 µM turned out to be 88.6%.
For `Cc1noc(NS(=O)(=O)c2ccc(Nc3cc(-c4ccccc4OC(F)(F)F)ncn3)cc2)c1C` [Example 2, N-(3,4-Dimethyl-isoxazol-5-yl)-4-[6-(2-trifluoromethoxy-phenyl)-pyrimidin-4-ylamino]-benzenesulfonamide], in the assay on M. tuberculosis H37Rv, the inhibition at 20 µM was 102% and the MIC was 9.71 µM (≈ 4.91 µg/mL). At human PLK1 kinase domain, the midpoint of inhibition, the IC50, lay at 698 nM and the inhibition at 10 µM came to 69%.
As for `Cc1noc(NS(=O)(=O)c2ccc(Nc3cc(-c4cccc(C#N)c4)ncn3)cc2)c1C` [Example 34, 4-[6-(3-Cyano-phenyl)-pyrimidin-4-ylamino]-N-(3,4-dimethyl-isoxazol-5-yl)-benzenesulfonamide], the inhibition at 20 µM in the assay with M. tuberculosis H37Rv is -4.3%. Further, on human PLK1 kinase domain, the inhibition at 10 µM came out at 58.5%.
In the case of `Cc1noc(NS(=O)(=O)c2ccc(Nc3cc(-c4cccc(N)c4)ncn3)cc2)c1C` [Example 44, 4-[6-(3-Amino-phenyl)-pyrimidin-4-ylamino]-N-(3,4-dimethyl-isoxazol-5-yl)-benzenesulfonamide], on human PLK1 kinase domain, the IC50 stood at 11400 nM and the inhibition at 10 µM is 68%.
As to `COc1ccc(F)c(F)c1-c1cc(Nc2ccc(S(=O)(=O)Nc3onc(C)c3C)cc2)ncn1` [Example 14, 4-[6-(2,3-Difluoro-6-methoxy-phenyl)-pyrimidin-4-ylamino]-N-(3,4-dimethyl-isoxazol-5-yl)-benzenesulfonamide], the inhibition at 10 µM against human PLK1 kinase domain was 55.4%.
Turning to `Cc1noc(NS(=O)(=O)c2ccc(Nc3cc(-c4ccc(N)cc4)ncn3)cc2)c1C` [Example 45, 4-[6-(4-Amino-phenyl)-pyrimidin-4-ylamino]-N-(3,4-dimethyl-isoxazol-5-yl)-benzenesulfonamide], on human PLK1 kinase domain, the midpoint of inhibition, the IC50, lay at 7340 nM and the inhibition at 10 µM turned out to be 88%.
For `Cc1ccc(COCc2cc(C)cc(-c3cc(Nc4ccc(S(=O)(=O)Nc5onc(C)c5C)cc4)ncn3)c2)cc1` [Example 47, N-(3,4-Dimethyl-isoxazol-5-yl)-4-{6-[3-methyl-5-(4-methyl-benzyloxymethyl)-phenyl]-pyrimidin-4-ylamino}-benzenesulfonamide], the inhibition at 10 µM against human PLK1 kinase domain is -4%.

By IC50 is commonly meant the concentration that gives 50% inhibition.
